From PubChem BioAssay (NCI)
Where “and” joins values, the source holds several entries; their conditions need not be identical. Equal values may be shown once.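 Five concentrations, 48 hours, 96-well plates. GI50 is the concentration that inhibits growth by half. The concentration for full growth arrest is given as TGI.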

Key:
Test in all cases: NCI-60 cell line screen, 48 h
HCT-15 colon = tested on: HCT-15 colon
COLO 205 colon = tested on: COLO 205 colon
OVCAR-5 ovarian = tested on: OVCAR-5 ovarian
DMS 273 small cell lung = tested on: DMS 273 small cell lung
LXFL 529 NSCLC = tested on: LXFL 529 NSCLC
UO-31 renal = tested on: UO-31 renal
SF-268 CNS = tested on: SF-268 CNS
HOP-18 NSCLC = tested on: HOP-18 NSCLC
U251 CNS = tested on: U251 CNS
DU-145 prostate = tested on: DU-145 prostate

Compound: COC(=O)c1cccc2cccc(C(=O)Nc3ccc(C)cc3C)c12
- TGI (HCT-15 colon): > 100 µM
- TGI (COLO 205 colon): > 100 µM
- TGI (OVCAR-5 ovarian): > 100 µM
- TGI (DMS 273 small cell lung): > 100 µM
- TGI (LXFL 529 NSCLC): > 100 µM
- TGI (UO-31 renal): > 100 µM
- TGI (SF-268 CNS): > 100 µM
- TGI (HOP-18 NSCLC): > 100 µM
- TGI (U251 CNS): > 100 µM

Compound: CC(C)N(C(=O)C12CC3CC(CC(C3)C1)C2)C(C)C
- TGI (HCT-15 colon): > 50 µM
- TGI (COLO 205 colon): > 50 µM
- TGI (OVCAR-5 ovarian): > 50 µM
- TGI (DMS 273 small cell lung): > 50 µM
- TGI (LXFL 529 NSCLC): > 50 µM
- TGI (UO-31 renal): > 50 µM
- TGI (SF-268 CNS): > 50 µM
- TGI (HOP-18 NSCLC): > 50 µM
- TGI (U251 CNS): > 50 µM

Compound: CC(=O)OC[C@]12CC[C@H]3[C@@H](C[C@H]4O[C@]45[C@@H](O)C=CC(=O)[C@]35C)[C@@H]1CC[C@@H]2[C@H](C)[C@H]1CC(C)=C(C)C(=O)O1
- GI50 (HCT-15 colon): 0.294 µM and 0.177 µM
- TGI (HCT-15 colon): 0.751 µM and 0.371 µM
- GI50 (COLO 205 colon): 0.348 µM and 0.31 µM
- TGI (COLO 205 colon): 0.91 µM
- GI50 (OVCAR-5 ovarian): 0.883 µM and 1.21 µM
- TGI (OVCAR-5 ovarian): 2.5 µM
- GI50 (DMS 273 small cell lung): 0.605 µM and 0.42 µM
- TGI (DMS 273 small cell lung): 1.51 µM
- GI50 (LXFL 529 NSCLC): 0.347 µM and 0.219 µM
- TGI (LXFL 529 NSCLC): 0.824 µM
- GI50 (UO-31 renal): 0.84 µM and 0.776 µM
- TGI (UO-31 renal): 2 µM
- GI50 (SF-268 CNS): 0.397 µM and 0.376 µM
- TGI (SF-268 CNS): 1.28 µM
- GI50 (HOP-18 NSCLC): 1.05 µM
- TGI (HOP-18 NSCLC): 2.42 µM
- GI50 (U251 CNS): 0.688 µM and 0.742 µM
- TGI (U251 CNS): 0.91 µM and 1.95 µM

Compound: COc1cc(OC(=O)c2c(O)cc(O)c(O)c2C)cc(C)c1C(=O)Oc1cc(C)c(C(=O)O)c(O)c1
- TGI (HCT-15 colon): > 100 µM
- TGI (COLO 205 colon): > 100 µM
- TGI (OVCAR-5 ovarian): > 100 µM
- TGI (DMS 273 small cell lung): > 100 µM
- TGI (LXFL 529 NSCLC): > 100 µM
- TGI (UO-31 renal): > 100 µM
- TGI (SF-268 CNS): > 100 µM
- TGI (HOP-18 NSCLC): > 100 µM
- TGI (U251 CNS): > 100 µM

Compound: CCOC(=O)CN=c1nc(SC)sc2c(C(=O)OCC)nc(Sc3ccccc3)n12
- TGI (COLO 205 colon): > 100 µM
- TGI (OVCAR-5 ovarian): > 100 µM
- TGI (LXFL 529 NSCLC): > 100 µM
- TGI (UO-31 renal): > 100 µM
- TGI (SF-268 CNS): > 100 µM
- TGI (HOP-18 NSCLC): > 100 µM

Compound: O=C(O)CN(c1ccccc1)S(=O)(=O)c1ccccc1[N+](=O)[O-]
- TGI (HCT-15 colon): > 100 µM
- TGI (COLO 205 colon): > 100 µM
- TGI (OVCAR-5 ovarian): > 100 µM
- TGI (DMS 273 small cell lung): > 100 µM
- TGI (LXFL 529 NSCLC): > 100 µM
- TGI (UO-31 renal): > 100 µM
- TGI (SF-268 CNS): > 100 µM
- TGI (HOP-18 NSCLC): > 100 µM
- TGI (U251 CNS): > 100 µM

Compound: CCOC(=O)NC(=O)c1cn(CCOCCOC(=O)NCCCCCCNC(=O)OCCOCCn2cc(C(=O)NC(=O)OCC)c(=O)[nH]c2=O)c(=O)[nH]c1=O
- TGI (HCT-15 colon): > 100 µM
- TGI (COLO 205 colon): > 100 µM
- TGI (OVCAR-5 ovarian): > 100 µM
- TGI (DMS 273 small cell lung): > 100 µM
- TGI (LXFL 529 NSCLC): > 100 µM
- TGI (UO-31 renal): > 100 µM
- TGI (SF-268 CNS): > 100 µM
- TGI (HOP-18 NSCLC): > 100 µM
- TGI (U251 CNS): > 100 µM

Compound: COc1c2c(cc3nc4ccccc4nc13)CCC(C(C)(C)O)C2 (stereo unspecified)
- TGI (HCT-15 colon): > 100 µM
- TGI (COLO 205 colon): > 100 µM
- TGI (OVCAR-5 ovarian): > 100 µM
- TGI (DMS 273 small cell lung): > 100 µM
- TGI (LXFL 529 NSCLC): > 100 µM
- TGI (UO-31 renal): > 100 µM
- TGI (SF-268 CNS): > 100 µM
- TGI (HOP-18 NSCLC): > 100 µM
- TGI (U251 CNS): > 100 µM

Compound: Cc1cc(C)nc(NS(=O)(=O)c2ccc(Nc3c4ccccc4nc4c(C(=O)Nc5ccc(S(=O)(=O)Nc6cc(C)on6)cc5)cccc34)cc2)n1
- TGI (HCT-15 colon): > 100 µM
- TGI (COLO 205 colon): 34.1 µM
- TGI (OVCAR-5 ovarian): 59 µM
- TGI (DMS 273 small cell lung): 55.8 µM
- TGI (LXFL 529 NSCLC): 33 µM
- TGI (UO-31 renal): 63.2 µM
- TGI (SF-268 CNS): 58 µM
- TGI (HOP-18 NSCLC): 53.4 µM
- TGI (U251 CNS): 41.4 µM

Compound: COc1ccc(OC)c(/C=C/C(=O)N/N=C/c2ccc(Cl)cc2)c1
- GI50 (HCT-15 colon): 0.0736 µM
- TGI (HCT-15 colon): > 100 µM
- GI50 (COLO 205 colon): 0.0935 µM
- TGI (COLO 205 colon): 0.599 µM
- GI50 (OVCAR-5 ovarian): 15.3 µM
- TGI (OVCAR-5 ovarian): > 100 µM
- GI50 (UO-31 renal): 3.37 µM
- TGI (UO-31 renal): > 100 µM
- GI50 (SF-268 CNS): 0.235 µM
- TGI (SF-268 CNS): > 100 µM
- GI50 (U251 CNS): 0.184 µM
- TGI (U251 CNS): 1.49 µM
- GI50 (DU-145 prostate): 0.18 µM
- TGI (DU-145 prostate): > 29 µM
